Read-outs that look alike come from different tables or passages of the source.
Key:
[1] = tested on: human colon carcinoma HT29; assay: Proliferation assay (IC50) under aerobic and hypoxic conditions, HT29; assay type: cell-based; conditions: for IC50: Homo sapiens, 4 h drug exposure, sulforhodamine B; for HCR: hypoxic cytotoxicity ratio = IC50 aerobic/IC50 hypoxic
In short: (§1)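 HT29 (1100) and SiHa (1500) cells in αMEM with 17 mM glucose and 100 μM 2′-dCyd, exposed 4 h at 37 °C to 3-fold dilutions under 20% O2 or anoxia (<0.001% O2). Regrowth 5 (oxic) or 6 (anoxic) days; IC50 by sulforhodamine B. HCR = IC50 aerobic/IC50 hypoxic.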

[2] = tested on: human cervical carcinoma SiHa; assay: Proliferation assay (IC50) under aerobic and hypoxic conditions, SiHa; assay type: cell-based; conditions: for IC50: Homo sapiens, 4 h drug exposure, sulforhodamine B; for HCR: hypoxic cytotoxicity ratio = IC50 aerobic/IC50 hypoxic
In short: as §1

[3] = tested on: HT29, human colon carcinoma; assay: Fractionated tumour excision assay, HT29 xenograft; assay type: in vivo, CD-1 nude mice; conditions: i.p. at 100% of MTD twice daily for 4 days, 30 min before each of 8×2.5 Gy, excised 18 hr after treatment
Procedure: (§2) FIG. 3 illustrates by way of a plot the activity of fractionated dose TPZ and compound 77 against hypoxic cells in three human tumour xenograft models: H460, non-small cell lung carcinoma; HT29, human colon carcinoma; SiHa, human cervical carcinoma. Drugs (1.0× fractionated MTD) were administered 30 min before each of 8×2.5 Gy doses of radiation.
(§3) The activity of multiple doses of compound 77 and TPZ against hypoxic cells in three human tumour xenografts is illustrated in FIG. 3. Subcutaneous tumours (average of two largest diameters 8-10 mm) were grown by inoculating 10^7 cells into the midline of the back in CD-1 nude mice. Drugs were administered by i.p. injection at 100% of the MTD for twice daily (9 am, 3 pm) administration for 4 days, either alone or 30 min before each of 8×2.5 Gy local irradiation of the tumour. Tumours were excised 18 hr after treatment and plated to determine the number of clonogens/g tumour tissue. Antitumour activity is measured as logs of cell kill in addition to the cell kill observed for radiation alone.

[4] = tested on: H460, non-small cell lung carcinoma; assay: Fractionated tumour excision assay, H460 xenograft; assay type: in vivo, CD-1 nude mice; conditions: i.p. at 100% of MTD twice daily for 4 days, 30 min before each of 8×2.5 Gy, excised 18 hr after treatment
Procedure: as §2, §3

[5] = tested on: SiHa, human cervical carcinoma; assay: Fractionated tumour excision assay, SiHa xenograft; assay type: in vivo, CD-1 nude mice; conditions: SiHa; i.p. at 100% of MTD twice daily for 4 days, 30 min before each of 8×2.5 Gy; excised 18 hr after treatment
Procedure: as §2, §3

[6] = HT-29, hypoxic (anaerobic chamber, <0.001% O2), then 6 days growth, read-out: IC50 (μM) hypoxic
[7] = HT-29, oxic (20% O2), then 5 days growth, read-out: IC50 (μM) oxic
[8] = hypoxic (anaerobic chamber, <0.001% O2), then 6 days growth, read-out: IC50 (μM) hypoxic
[9] = oxic (20% O2), then 5 days growth, read-out: IC50 (μM) oxic

SMILES | IC50 [1, 6] [µM] | IC50 [1, 7] [µM] | IC50 [2, 8] [µM] | IC50 [2, 9] [µM] | melting point [°C] | HCR [1] | HCR [2] | log cell kill compared to radiation alone [3] | log cell kill compared to radiation alone [4] | log cell kill compared to radiation alone [5]
[O-][n+]1nc(CCCN2CCOCC2)[n+]([O-])c2cc3c(cc21)CCO3 [Compound 216, 3-[3-(4-Morpholinyl)propyl]-7,8-dihydrofuro[2,3-g][1,2,4]benzotriazine 1,4-Dioxide] | 8.9 ± 0.4 | 218 ± 54 | 5.05 ± 0.01 | 216 | 150 to 154 | 25 ± 6 | 43 | – | – | –
CN(C)CCNc1n[n+]([O-])c2cc3c(cc2[n+]1[O-])OCO3 [Compound 224, N^1-(1,4-Dioxido[1,3]dioxolo[4,5-g][1,2,4]benzotriazin-3-yl)-N^2,N^2-dimethyl-1,2-ethanediamine] | 13 ± 7 | 471 ± 443 | 4.7 ± 3.3 | 304 ± 254 | 175 to 179 | 26 ± 21 | 53 ± 17 | – | – | –
Nc1n[n+]([O-])c2ccccc2[n+]1[O-] [TPZ, tirapazamine, reference compound] | – | – | – | – | – | – | – | significantly (P<0.05) greater log cell kill | significantly (P<0.05) greater log cell kill | significantly (P<0.05) greater log cell kill

More lines, main results first:

IC50 [1, 6] [µM] | IC50 [1, 7] [µM] | IC50 [2, 8] [µM] | IC50 [2, 9] [µM] | melting point [°C] | SMILES | HCR [1] | HCR [2] | log cell kill compared to radiation alone [3] | log cell kill compared to radiation alone [4] | log cell kill compared to radiation alone [5]
1.5 | 38 ± 10 | 0.31 | 25 ± 6 | 152 to 154 | CN(C)CCNc1n[n+]([O-])c2cc3c(cc2[n+]1[O-])CCCO3 [Compound 242, N^1-(1,4-Dioxido-7,8-dihydro-6H-chromeno[6,7-e][1,2,4]triazin-3-yl)-N^2,N^2-dimethyl-1,2-ethanediamine] | 19 | 60 | – | – | –
2.6 ± 0.03 | 154 ± 19 | 1.1 ± 0.5 | 111 ± 51 | 120 to 124 | CCNc1n[n+]([O-])c2cc3c(cc2[n+]1[O-])CN(C)CC3 [Compound 259, N-Ethyl-7-methyl-6,7,8,9-tetrahydro[1,2,4]triazino[6,5-g]isoquinolin-3-amine 1,4-Dioxide] | 59 ± 7 | 100 ± 2 | – | – | –
13 ± 1 | 24 ± 2 | 3.1 ± 0.1 | 18 ± 1 | 124 to 128 | CCc1n[n+]([O-])c2cc3c(cc2[n+]1[O-])CN(C)CC3 [Compound 261, 3-Ethyl-7-methyl-6,7,8,9-tetrahydro[1,2,4]triazino[6,5-g]isoquinoline 1,4-Dioxide] | 2 ± 0.2 | 6 ± 0.2 | – | – | –

— US7989451B2, “Tricyclic 1,2,4-triazine oxides and compositions for therapeutic use in cancer treatments” (Auckland Uniservices Limited, priority 2005, dated 2011)
